This assay addresses T1, Gly m 4 (Glycine max, UniProt P26987).
T1 construct: gene PR-10; recombinant allergen, full length; made in E. coli
T1 sequence (P26987 1-158): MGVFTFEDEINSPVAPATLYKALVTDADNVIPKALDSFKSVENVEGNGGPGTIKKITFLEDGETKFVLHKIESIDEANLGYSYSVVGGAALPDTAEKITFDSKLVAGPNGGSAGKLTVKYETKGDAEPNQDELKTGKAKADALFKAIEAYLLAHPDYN
Description: TNS fluorescence displacement. The settings on record: 4 uM ligand, 4 uM TNS, 4 uM Gly m 4; 10 mM phosphate buffer pH 7.4, 25 C; residual fluorescence of the Gly m 4-TNS complex. The assay is classed as binding.
For `C[C@H](CCC(=O)O)[C@H]1CC[C@H]2[C@@H]3[C@H](O)C[C@@H]4C[C@H](O)CC[C@]4(C)[C@H]3C[C@H](O)[C@]12C` [CA, cholic acid], the “% of the control fluorescence” value worked out at 88%. For the compound `C[C@H](CCC(=O)O)[C@H]1CC[C@H]2[C@@H]3[C@H](O)C[C@@H]4C[C@H](O)CC[C@]4(C)[C@H]3CC[C@]12C` [CDCA, chenodeoxycholic acid], the “% of the control fluorescence” value is listed as 53%. As for `CC(C)CCC[C@@H](C)[C@H]1CC[C@H]2[C@@H]3CC=C4C[C@@H](O)CC[C@]4(C)[C@H]3CC[C@]12C` [CHOL, cholesterol], the figure is 83%; as for `C[C@H](CCC(=O)O)[C@H]1CC[C@H]2[C@@H]3CC[C@@H]4C[C@H](O)CC[C@]4(C)[C@H]3C[C@H](O)[C@]12C` [DCA, deoxycholic acid], 71%. In the case of `C[C@H](CCC(=O)O)[C@H]1CC[C@H]2[C@@H]3CC[C@@H]4C[C@H](O)CC[C@]4(C)[C@H]3CC[C@]12C` [LCA, lithocholic acid], the “% of the control fluorescence” value turned out to be 10%.

The values above are taken from paper PMC11988912, “Sensitization Potential of the Major Soybean Allergen Gly m 4 and Its Cross-Reactivity with the Birch Pollen Allergen Bet v 1” (International Journal of Molecular Sciences, 2025).
